# Like-named read-outs stand apart in the source and are kept apart here.
# How the values were obtained:
# p-eIF2α = assay: Cellular PERK inhibition: p-eIF2a TR-FRET in tunicamycin-treated HEK293-EGFP-eIF2a cells; type: cell-based
# Method: Methods used to evaluate in vitro cellular PERK inhibition are described and published elsewhere. In brief, stableHEK293 cells were created using lentiviral particles harboring a GFP-eIF2a expression vector. Transfectants were selected by puromycin and enriched using fluorescent cell sorting based on GFP expression. HEK293-EGFP-eIF2a cells were plated at 5000 cells/well in 384-well assay plates and incubated overnight. The following day, pyrrolopyrimidine analogs were added to wells using an Echo acoustic dispenser and incubated for 30 min. ER stress was induced by the addition of tunicamycin to the wells at […] for 2 h. Cells were lysed and peIF2a was evaluated using a TR-FRET system, as described above.
# The PERK activity of analog I was evaluated using cell-free biochemical assays. In these assays, PERK phosphorylation of eIF2a was assessed using a FRET-based labelled protein assay. Compounds were then evaluated for cellular activity by quantifying inhibition of eIF2a phosphorylation in HEK293 cells treated with the ER inducer tunicamycin [7].
# [1] = Plasma protein binding (RED dialysis), rat; type: in vitro ADME; conditions: male, Sprague Dawley, pH 7.4
# Source text: Verapamil hydrochloride and tamoxifen were obtained from Sigma-Aldrich. […]
# Pooled mixed gender human donor plasma, Sprague Dawley male rat plasma, CD-1 (ICR) male mouse plasma and male beagle dog plasma were obtained from Bioreclamation Inc. (Westbury, NY). Reusable Teflon base plate, RED Device inserts, and BupH Phosphate Buffered Saline packs (0.1 M sodium phosphate and 0.15 M sodium chloride when dissolved in 0.5 L water) were obtained from Thermo Scientific (Waltham, MA). Propranolol was obtained from Sigma-Aldrich (St. Louis, MO). All solvents were obtained from commercial sources and used without further purification.
# Frozen plasma was thawed and the pH of plasma and BupH phosphate buffered saline was adjusted to 7.4 prior to dialysis. Into each well of a reusable Teflon 48-well base plate a RED insert was placed open end up. Ten microliters (10 µL) of the test compound (0.1 mM in acetonitrile/water, 1:1 v/v) was added to 990 µL of plasma to achieve 1 µM final concentration. The spiked plasma (200 µL) was added to the sample chamber, which is indicated by the red retainer ring (donor side). To the other side (receiver side), 350 µL of BupH phosphate buffered saline (pH 7.4) was added. A buffer-to-buffer assay was also performed to measure equilibrium across the membrane in the absence of plasma protein.
# Propranolol was used as a positive control. All samples were prepared in triplicate. The RED device base plate was then sealed and placed in a shaking incubator set to maintain 37°C and 200 rpm for four hours.
# After incubation, 100 µL of each sample was combined with an equal volume of either plasma or buffer, to create a similar matrix for all samples. Blank buffer was added to plasma samples, and vice versa. Samples from the incubation, along with the original compound-spiked plasma samples, were prepared for analysis in the same manner. Protein precipitation by addition of two parts of ice-cold acetonitrile to one part of reaction volume was carried out. To ensure complete protein precipitation samples were sealed and placed overnight at 4°C. The next morning samples were centrifuged at 3,600 rpm for 15 minutes. The supernatants (70 µL) were supplemented with an equal volume of internal standard solution (0.15 µM verapamil in water) and subjected to LC-MS/MS analysis.
# [2] = Metabolic clearance in hepatocytes, human; type: in vitro ADME; conditions: male, pooled cryopreserved human hepatocytes (ten donors), read-out: Hepatocyte Clearance (t1/2 min) Human
# Method: Metabolic Clearance in Hepatocytes
# Testosterone was obtained from Cerilliant (Round Rock, TX). 7-Hydroxycoumarin was obtained from Sigma-Aldrich (St.
# Louis, MO). Ten-donor male pooled cryopreserved human hepatocytes, cryopreserved male Sprague Dawley rat hepatocytes, cryopreserved male ICR/CD-1 mouse hepatocytes, cryopreserved male beagle dog hepatocytes, In VitroGro HI Medium (Incubation), and InVitroGro HT Medium (Thawing) were obtained from Bioreclamation IVT (Baltimore, MD). All solvents were obtained from commercial sources and used without further purification.Test compound was prepared as a 1 mM stock solution in DMSO. A 2 µM solution of test compound and testosterone was prepared (7 - hydroxycoumarin was prepared at 20 µM) in In VitroGro HI Medium (Incubation). These solutions were placed in a sterile incubator set to maintain 37°C, 5% CO2, and 98% humidity to pre-warm. Cryopreserved hepatocytes were prepared at a concentration of 2 x 10^6 living cells/mL in incubation media and placed in the incubator to pre-warn. The compound solutions and hepatocyte mixtures were then combined at a ratio of 1:1 (v:v). The final volume of the reaction mixture was 750 µL, containing 1 µM test compound and 1 x 10^6 cells/mL. The reaction mixture was placed in the incubator on a plate shaker. After 0, 15, 30, 60, 90, and 120 minutes of incubation, 100 µL of reaction mixtures were removed from the incubation plate and mixed with 150 µL of ice-cold acetonitrile in a designated well of a 96-well crash plate. The 96-well crash plate was placed on ice for 15 min, and samples were centrifuged (3,600 rpm, 10 min, 4 °C) to precipitate protein.
# The supernatants were diluted 1:1 (v/v) with water containing tolbutamide, (internal standard for positive and negative modes, respectively) in a 96-well shallow injection plate. This plate was sealed for LC-MS analysis. All measurements
# [3] = Homo sapiens, HEK293 cells, tunicamycin-induced ER stress, read-out: p-eIF2α IC50
Compound,IC50 (p-eIF2α; [3]),"fraction unbound at 4 h, 1 µM [1]",half-life at 1 µM [2],"IC50 (p-eIF2α; bound stated, read-out: cellular potency)"
"Cc1cc(NC(=O)[C@H](O)c2cccc(F)c2)ccc1-c1cn(C)c2ncnc(N)c12 [Compound 11, (R)-N-(4-(4-amino-7-methyl-7H-pyrrolo[2,3-d]pyrimidin-5-yl)-3-methylphenyl)-2-(3-fluorophenyl)-2-hydroxy acetamide]",8.4 nM,,,
Cc1nc(N)c2c(-c3ccc(NC(=O)[C@H](O)c4cccc(F)c4)cc3C)cn(C)c2n1 [Compound 24],51 nM,0.009,12.2 h,
Cc1nc(N)c2c(-c3ccc(NC(=O)[C@H](O)c4cccc(C(F)(F)F)c4)cc3C)cn(C)c2n1 [Compound 26],15 nM,0.002,3.23 h,
Cc1nc(N)c2c(-c3ccc(NC(=O)[C@H](O)c4cccc(Cl)c4)cc3C)cn(C)c2n1 [Compound 28],16 nM,0.003,13 h,
Cc1nc(N)c2c(-c3ccc(NC(=O)[C@H](O)c4cc(F)cc(F)c4)cc3C)cn(C)c2n1 [Compound 38],14 nM,0.009,14.9 h,
Cc1nc(N)c2c(-c3ccc(NC(=O)[C@H](O)c4cc(F)cc(C(F)(F)F)c4)cc3C)cn(C)c2n1 [Compound 39],11 nM,0.001,4.62 h,
"Cc1nc(N)c2c(-c3ccc(NC(=O)[C@H](O)c4cccc(F)c4)c(F)c3F)cn(C)c2n1 [Compound 70, (R)-N-(4-(4-amino-2,7-dimethyl-7H-pyrrolo[2,3-d]pyrimidin-5-yl)-2,3-difluorophenyl)-2-(3-fluorophenyl)-2-hydroxyacetamide]",24 nM,0.007,6 h,

# Second part, the compound after the results:
IC50 (p-eIF2α; [3]),"fraction unbound at 4 h, 1 µM [1]",half-life at 1 µM [2],"IC50 (p-eIF2α; bound stated, read-out: cellular potency)",Compound
10 nM,0.005,1.13 h,,Cc1cc(F)cc([C@@H](O)C(=O)Nc2ccc(-c3cn(C)c4nc(C)nc(N)c34)c(C)c2)c1 [Compound 41]
10 nM,0.004,9.27 h,< 15 nM,Cc1nc(N)c2c(-c3ccc(NC(=O)[C@H](O)c4cccc(Cl)c4)cc3F)cn(C)c2n1 [Compound 48]
30 nM,0.011,6.5 h,,Cc1nc(N)c2c(-c3ccc(NC(=O)[C@H](O)c4cccc(F)c4)c(F)c3C)cn(C)c2n1 [Compound 65]
42 nM,0.014,5.97 h,,Cc1nc(N)c2c(-c3cc(F)c(NC(=O)[C@H](O)c4cccc(F)c4)cc3C)cn(C)c2n1 [Compound 66]

# From publication PMC9611727, “Optimization of a Novel Mandelamide-Derived Pyrrolopyrimidine Series of PERK Inhibitors” (Pharmaceutics, 2022)
